Source: patent US12134623B1, “2,16-dioxapentacyclo[7.7.5.01,21.03,8.010,15]henicosa3(8),10,12,14-tetraene-7,20-dione as an antimicrobial compound” (KING FAISAL UNIVERSITY, priority 2023, dated 2024)

Columns and labels:
Type in all cases: cell-based
Details in all cases: after 10, 20, 40 and 60 minutes at all dilutions 1:100, 1:200, 1:400, 1:800
Candida albicans = experiment: Antimicrobial (antifungal) activity by agar dilution, Candida albicans
Protocol: (§1) The antibacterial properties of the synthesized compound (of 2,16-dioxapentacyclo[7.7.5.0^1,21.0^3,8.0^10,15]henicosa3(8), 10,12,14-tetraene-7,20-dione) were studied by the method of agar dilution. Test solutions of each compound was prepared in concentration of 1% using dimethylformamide as a solvent. Then they were diluted in physiological solution to obtain the final experimental dilutions of 1:100, 1:200, 1:400, and 1:800. The effect of these substances were compared with furacillin in a controllable study. The testing microbes used were gram positive bacteria Staphylococcus aureus, gram negative bacteria Pseudomonas aeruginosa, Escherichia coli, and Candida albicans fungus. The experiments used for this survey were meat-pentonlu agar (EPA) for cultivation of bacteria and Saburo environment for fungi. Each experiment used 1 mL of test solution on each plate for 500 minutes. Two drops of emulsified with microbes feel were added. All experimental samples were taken from the agar after 10, 20, 40, 60 minutes in the environment on the basis of Patrk planted. Bacteria were cultivated at a temperature of 37° C. for 1 day and the mushroom was kept in a thermostat for […] at a temperature of 28° C. Then results were checked. Those of control and the antimicrobial activity for the synthesized compounds are listed in Table 1 below, with furacillin serving as a reference.

Staphylococcus aureus = experiment: Antimicrobial activity by agar dilution, Staphylococcus aureus
Protocol: as §1

Pseudomonas aeruginosa = experiment: Antimicrobial activity by agar dilution, Pseudomonas aeruginosa
Protocol: as §1

Escherichia coli = experiment: Antimicrobial activity by agar dilution, Escherichia coli
Protocol: as §1

Measured: inhibition activity compared with the inhibition activity of Furacilin

O=C1CCCC2=C1C1c3ccccc3OC3(CCCC(=O)C13)O2 (stereo not shown) [2,16-dioxapentacyclo[7.7.5.0^1,21.0^3,8.0^10,15]henicosa3(8), 10,12,14-tetraene-7,20-dione]
higher inhibition activity: all assays above
